In patent publication US20110257202A1, “Therapeutic Compositions and Methods for Treating Chronic Kidney Disease Associated with a Metabolic Imbalance” (priority 2008, published 2011):
“Also recorded” adds a separate entry of the source.

Key:
[1] = test system: human aortic endothelial cells; assay: Oxidative stress (DCF-DA fluorescence) in endothelial cells; format: cell-based; conditions: 12 mg/dl
Protocol: The green fluorescence is a measure of a marker for oxidative stress using the peroxide-sensitive probe 2′7′-dichlorofluorescein diacetate (DCF-DA) dye (FIG. 9A). On the right is the quantitation of oxidative stress, with control in open bar, uric acid (12 mg/dl) in the black bar, and uric acid with apocynin (an inhibitor of NADPH oxidase-induced oxidants) in the right bar (FIG. 9B).

[2] = test system: human aortic endothelial cells; assay: ATP levels in endothelial cells; format: cell-based; conditions: 3.5, 7 and 12 mg/dl, 48 hours
Protocol: Uric acid (3.5 mg/dl, 7 mg/dl and 12 mg/dl) was included in the media for 48 hours.
(§1) One of the key mechanisms by which uric acid acts to cause endothelial dysfunction is to cause a loss of mitochondria and mitochondria DNA, resulting in depletion of ATP stores necessary for endothelial function (FIGS. 11 and 12).

[3] = test system: human aortic endothelial cells; assay: Mitochondria number (Mitotracker Orange) in endothelial cells; format: cell-based; conditions: 12 mg/dl, 48 hours
Protocol: Mitochondria numbers were measured with Mitotracker Orange in control cells (FIG. 12A) and UA treated cells (FIG. 12B). Shown in FIG. 12C is the quantified effect of uric acid 12 mg/dl on mitochondria density at 48 hours.
as §1

[4] = test system: human aortic endothelial cells; assay: Cell viability (trypan blue exclusion); format: cell-based; conditions: 48 hours
[5] = test system: porcine aortic endothelial cells; conditions: various doses, from Khosla et al; cited from earlier work
[6] = test system: mitochondria; assay: Mitochondrial loss in response to oxidative stress
[7] = test system: eNOSKO mice; conditions: 4 weeks, 50 mg/l drinking water
Protocol: Since nitrite is a metabolite of NO, and can be converted to NO in the body (reviewed in ^28), sodium nitrite was tested to see if it could prevent hypertension in eNOSKO mice.

[8] = test system: wild type diabetic (DM) mice; assay: Blood pressure in wild type diabetic mice; format: in vivo
Description: (§2) FIG. 1 represents a graph showing that ACE inhibitors are effective in lowering blood pressure in wild type diabetic (DM) mice. Shown in FIG. 1 is the effect of no treatment (No TX), the ACE inhibitor enalapril (DM enalapril), and the ARB telmisartan (DM telmisartan).
as §2, with “is” for “represents”, “telmisartan). […] These are considered early changes of diabetic nephropathy.” for “telmisartan).”

[9] = test system: wild type diabetic (DM) mice; assay: Renal histology (early diabetic nephropathy) in wild type diabetic mice; format: in vivo
Description: These are considered early changes of diabetic nephropathy.
(§3) FIG. 4 ACE inhibitors and ARBs are not effective at preventing diabetic nephropathy in eNOSKO mice. DM caused mesangial expansion in DM eNOSKO mice (B), which was not prevented by enalapril (C) or telmisartan (D). […] Bar: 20 μm. […] Bar: 20 μm. White bar=no treatment; Black bar=enalapril; Gray bar=telmisartan. Data are shown as means and
as §2, with “is” for “represents”, “telmisartan). […] These are considered early changes of diabetic nephropathy.” for “telmisartan).”
(§4) DM caused mesangial expansion in DM eNOSKO mice (b), which was not prevented by enalapril (c) or telmisartan (d). […] Bar: 20 μm. […] Bar: 20 μm. White bar=no treatment; Black bar=enalapril; Gray bar=telmisartan. FIG. 5 pertains to a table that provides results of the effect of ACE inhibitors and ARBs on blood pressure and renal function in diabetic nephropathy in eNOSKO mice. ACE inhibitors and ARBs are effective at lowering blood pressure and proteinuria in wild type diabetic mice, and are also effective at lowering blood pressure in nondiabetic eNOSKO mice.

[10] = test system: DM eNOSKO mice; assay: Renal histology (diabetic nephropathy) in diabetic eNOSKO mice; format: in vivo
Description: It has been shown that when diabetes is induced in these mice with streptozotocin, that they develop all aspects of human diabetic nephropathy, including clinical manifestations (nephrotic proteinuria, progressive renal failure and early mortality), histologic manifestations (including mesangial expansion, nodules and mesangiolysis, podocyte abnormalities, vascular lesions, tubulointerstitial disease) and molecular changes (increases in TGF-β and VEGF expression). To the inventors' knowledge this is also the first diabetic model that develops both retinopathy and nephropathy spontaneously.
as §3
FIG. 7 is an immunohistograph of a kidney of a Diabetic eNOSKO mouse showing an increase in aldosterone in its glomeruli. Diabetes was induced with streptozotocin in eNOSKO mice, which were treated with enalapril (10 mg/kg BW/day; black bar) or telmisartan (2 mg/kg BW/day; gray bar) for 4 weeks (from at 6 weeks to 10 weeks)
as §4

[11] = test system: DM eNOSKO mice; conditions: diabetic eNOS-deficient mice; reference 21; cited from earlier work
[12] = test system: DM eNOSKO mice; assay: Blood pressure in diabetic eNOSKO mice; format: in vivo; conditions: diabetic mice lacking endothelial nitric oxide synthesis; 50 mg/kg

O=c1[nH]c(=O)c2[nH]c(=O)[nH]c2[nH]1 [uric acid]
oxidative stress (DCF-DA) [1]: causes oxidative stress
ATP levels [2]: reduces ATP levels
mitochondria number [3]: reduces mitochondria number
cell viability ([4]; 12 mg/dl): No effects on cell viability
cell viability (trypan blue exclusion) ([4]; 3.5, 7 and 12 mg/dl): No alterations in cell viability
endothelial NO levels (fluorescence of DAF) [5]: causes a reduction in endothelial NO levels

O=C(NCCO[N+](=O)[O-])c1cccnc1 [nicorandil]
mitochondrial loss [6]: can prevent mitochondrial loss

O=NO [sodium nitrite]
blood pressure [7]: reduced blood pressure in eNOSKO mice similar to that observed in wild type mice

CCCc1nc2c(C)cc(-c3nc4ccccc4n3C)cc2n1Cc1ccc(-c2ccccc2C(=O)O)cc1 [telmisartan]
blood pressure (BP) [8]: can significantly lower blood pressure
glomerular type IV collagen deposition [9]: improve
mesangial expansion [9]: improve mesangial expansion; also recorded: beneficial effect
advanced lesions (mesangiolysis with glomerular capillary microaneurysms, augmented deposition of extracellular matrix) [10]: Neither enalapril (g) nor telmisartan (h) treatment prevented these advanced lesions
mesangial expansion [10]: not prevented

insulin
renal disease [11]: can be prevented

CCOC(=O)[C@H](CCc1ccccc1)N[C@@H](C)C(=O)N1CCC[C@H]1C(=O)O [enalapril]
blood pressure (BP) [8]: can significantly lower blood pressure
glomerular type IV collagen deposition [9]: improve
mesangial expansion [9]: improve mesangial expansion; also recorded: beneficial effect
BP [12]: did not lower BP
advanced lesions (mesangiolysis with glomerular capillary microaneurysms, augmented deposition of extracellular matrix) [10]: Neither enalapril (g) nor telmisartan (h) treatment prevented these advanced lesions
mesangial expansion [10]: not prevented
